This passage reports IC50 results from patent US12581252B2, “Substituted pyrrolo[3,4-b]pyridines as PI3K-α inhibitors” (Relay Therapeutics, Inc., priority 2020, dated 2026).

Test [1] concerns the target H1047R PIK3CA enzyme (Homo sapiens, UniProt P42336, H1047R). As to the kind of experiment: ADP-Glo Biochemical PIK3CA Kinase Assay. Background: In ADP-Glo the light output rises with the ADP produced.
The nature of test [2]: cells. To be noted: Homo sapiens, MCF-10A, read-out: MCF10A IC50.

Chain of H1047R PIK3CA enzyme (P42336 whole entry H1047R): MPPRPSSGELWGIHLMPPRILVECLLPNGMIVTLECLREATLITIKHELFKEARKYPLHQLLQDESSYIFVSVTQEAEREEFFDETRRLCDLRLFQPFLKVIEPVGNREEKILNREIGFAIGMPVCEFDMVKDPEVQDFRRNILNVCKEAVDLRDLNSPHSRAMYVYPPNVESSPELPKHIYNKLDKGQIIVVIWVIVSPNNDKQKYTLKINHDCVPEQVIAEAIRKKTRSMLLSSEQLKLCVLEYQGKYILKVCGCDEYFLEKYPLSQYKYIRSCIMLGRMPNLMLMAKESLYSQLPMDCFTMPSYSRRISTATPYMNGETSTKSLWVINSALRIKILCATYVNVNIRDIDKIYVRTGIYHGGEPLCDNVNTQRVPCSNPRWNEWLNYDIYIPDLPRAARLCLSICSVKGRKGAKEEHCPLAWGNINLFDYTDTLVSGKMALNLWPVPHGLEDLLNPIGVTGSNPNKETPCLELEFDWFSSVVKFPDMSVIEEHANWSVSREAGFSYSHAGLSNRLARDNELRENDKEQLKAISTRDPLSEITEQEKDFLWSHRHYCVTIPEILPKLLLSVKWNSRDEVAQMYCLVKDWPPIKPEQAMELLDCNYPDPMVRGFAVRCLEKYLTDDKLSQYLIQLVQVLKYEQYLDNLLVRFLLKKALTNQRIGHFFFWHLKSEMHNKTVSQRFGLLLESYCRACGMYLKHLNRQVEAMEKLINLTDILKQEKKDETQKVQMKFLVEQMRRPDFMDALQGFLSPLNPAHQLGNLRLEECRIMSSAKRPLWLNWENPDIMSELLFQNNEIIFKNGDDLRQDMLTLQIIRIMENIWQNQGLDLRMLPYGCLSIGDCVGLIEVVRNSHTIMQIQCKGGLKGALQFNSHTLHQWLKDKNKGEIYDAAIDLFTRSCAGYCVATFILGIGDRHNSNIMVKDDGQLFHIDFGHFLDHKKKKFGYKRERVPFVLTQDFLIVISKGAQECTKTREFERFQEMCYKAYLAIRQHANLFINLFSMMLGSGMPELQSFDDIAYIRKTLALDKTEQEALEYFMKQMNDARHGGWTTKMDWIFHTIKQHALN
Chain of H1047R PIK3CA enzyme (P27986 whole entry partner): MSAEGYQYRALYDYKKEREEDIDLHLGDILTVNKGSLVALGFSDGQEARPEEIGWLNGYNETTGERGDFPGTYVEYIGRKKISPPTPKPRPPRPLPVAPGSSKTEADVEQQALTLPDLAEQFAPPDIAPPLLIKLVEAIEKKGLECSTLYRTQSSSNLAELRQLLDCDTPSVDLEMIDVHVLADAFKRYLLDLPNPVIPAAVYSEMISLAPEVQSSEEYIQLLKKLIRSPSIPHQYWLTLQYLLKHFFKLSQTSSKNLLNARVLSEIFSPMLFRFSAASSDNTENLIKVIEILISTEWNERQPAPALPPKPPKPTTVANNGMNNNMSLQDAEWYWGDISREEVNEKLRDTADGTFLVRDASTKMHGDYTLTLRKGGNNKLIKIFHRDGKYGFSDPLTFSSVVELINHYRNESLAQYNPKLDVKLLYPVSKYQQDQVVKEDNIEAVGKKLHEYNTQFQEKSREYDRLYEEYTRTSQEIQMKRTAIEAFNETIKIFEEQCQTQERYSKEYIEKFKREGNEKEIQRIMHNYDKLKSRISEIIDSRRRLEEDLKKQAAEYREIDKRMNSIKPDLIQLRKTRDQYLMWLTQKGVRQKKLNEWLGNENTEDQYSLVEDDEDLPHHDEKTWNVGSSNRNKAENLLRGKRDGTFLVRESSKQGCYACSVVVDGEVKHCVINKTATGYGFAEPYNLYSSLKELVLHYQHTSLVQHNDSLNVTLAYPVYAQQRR

As a reminder, the IC50 is the concentration at which inhibition is half-maximal. In the case of `O=C(Nc1cc(-c2n[nH]c3cccnc23)cc2c1C(c1cc(F)ccc1Cl)NC2=O)c1cc(F)cc(C(F)(F)F)c1` (stereo not shown) [Compound I-936], the values for the IC50 in test [1] and in test [2] were no more than 100 nM and less than 1000 nM, respectively.
Turning to `O=C1NC(c2cc(F)ccc2Cl)c2c(NC(=O)N3CC(O)c4cc(F)ccc43)cc(-c3cnn(C(F)F)c3)cc21` (stereo not shown) [Compound I-2299], the results for the IC50 in test [1] and in test [2] were no more than 100 nM and 1000 to 5000 nM, respectively.
Taken in the same sequence, the figures for `CS(=N)(=O)Cc1cc(NC(=O)c2cc(F)cc(C(F)(F)F)c2)c2c(c1)C(=O)NC2c1cc(F)ccc1Cl` (stereo not shown) [Compound I-1018] were no more than 100 nM and less than 1000 nM.
Taken in the same sequence, the figures for `O=C(Nc1cc(Nc2ncc[nH]2)cc2c1C(c1cc(F)ccc1Cl)NC2=O)c1cc(F)cc(C(F)(F)F)c1` (stereo not shown) [Compound I-999] were no more than 100 nM and 1000 to 5000 nM.
Taken in the same sequence, the figures for `O=C(Nc1cc(I)cc2c1C(c1cc(F)ccc1Cl)NC2=O)c1cc(F)cc(C(F)(F)F)c1` (stereo not shown) [Compound I-913] were no more than 100 nM and less than 1000 nM.
For the compound `O=C(Nc1cc(-c2cnn(-c3ncccn3)c2)cc2c1C(c1cc(F)ccc1Cl)NC2=O)c1cc(F)cc(C(F)(F)F)c1` (stereo not shown) [Compound I-1418], the IC50 was no more than 100 nM in test [1] and less than 1000 nM in test [2].
As for `Nc1cc(NC(=O)N2C[C@@H](O)c3ccccc32)c2c(c1)C(=O)N[C@H]2c1cc(F)ccc1Cl` (single isomer, unassigned) [Compound I-2133], the results for the half-maximal inhibitory concentration (IC50) in test [1] and in test [2] were no more than 100 nM and less than 1000 nM, respectively.
Taken in the same sequence, the figures for `O=C(Nc1cc(-c2cnc3ccccc3n2)cc2c1C(c1cc(F)ccc1Cl)NC2=O)c1cc(F)cc(C(F)(F)F)c1` (stereo not shown) [Compound I-948] were no more than 100 nM and less than 1000 nM.
For `O=C1N[C@@H](c2cc(F)ccc2Cl)c2c(NC(=O)N3C[C@H](O)c4cc(F)ccc43)cc(-n3ccccc3=O)cc21` (single isomer, unassigned) [Compound I-2350], in that order: no more than 100 nM and 5000 to 10000 nM.
Taken in the same sequence, the figures for `Cc1noc(C)c1Nc1cc(NC(=O)c2cc(F)cc(C(F)(F)F)c2)c2c(c1)C(=O)NC2c1cc(F)ccc1Cl` (stereo not shown) [Compound I-923] were no more than 100 nM and less than 1000 nM.
Regarding `O=C1NC(c2cc(F)ccc2Cl)c2c(NC(=O)N3CC(O)(C(F)F)c4ccccc43)cccc21` (mixture of isomers) [Compound I-2423], the IC50 is no more than 100 nM in test [1] and 1000 to 5000 nM in test [2].
Taken in the same sequence, the figures for `Nc1ncc(-c2cc(NC(=O)c3cc(F)cc(C(F)(F)F)c3)c3c(c2)C(=O)N[C@@H]3c2cc(F)ccc2Cl)cn1` (stereo in doubt) [Compound I-1003] were no more than 100 nM and less than 1000 nM.
For the compound `O=C(Nc1cc(-c2cc3ncccc3[nH]2)cc2c1C(c1cc(F)ccc1Cl)NC2=O)c1cc(F)cc(C(F)(F)F)c1` (stereo not shown) [Compound I-970], the values for the half-inhibitory concentration (IC50) in test [1] and in test [2] were no more than 100 nM and less than 1000 nM, respectively.
For `O=C1N[C@H](c2cc(F)ccc2Cl)c2c(NC(=O)N3C[C@@](O)(C(F)(F)F)c4cc(F)ccc43)cc(-n3ccnn3)cc21` (single isomer, unassigned) [Compound I-2547], in that order: no more than 100 nM and less than 1000 nM.
Taken in the same sequence, the figures for `CC(C)(O)Cc1cc(NC(=O)c2cc(F)cc(Cl)c2)c2c(c1)C(=O)N[C@H]2c1cc(F)ccc1Cl` [Compound I-1080] were no more than 100 nM and less than 1000 nM.
Taken in the same sequence, the figures for `O=C1N[C@H](c2cc(F)ccc2Cl)c2c(NC(=O)N3C[C@@H](O)c4cc(F)ccc43)cc(Cl)cc21` (single isomer, unassigned) [Compound I-2402] were no more than 100 nM and less than 1000 nM.
For the compound `O=C(Nc1cc(-c2cncnc2)cc2c1C(c1cc(F)ccc1Cl)NC2=O)c1cc(F)cc(C(F)(F)F)c1` (stereo not shown) [Compound I-967], the 50% inhibitory concentration (IC50) is no more than 100 nM in test [1] and less than 1000 nM in test [2].
Taken in the same sequence, the figures for `N#CCN1CC(c2cc(NC(=O)c3cc(F)cc(C(F)(F)F)c3)c3c(c2)C(=O)NC3c2cc(F)ccc2Cl)C1` (stereo not shown) [Compound I-1158] were no more than 100 nM and less than 1000 nM.
For `O=C1N[C@H](c2ccccc2Cl)c2c(NC(=O)N3C[C@@](O)(C(F)(F)F)c4cc(F)ccc43)cccc21` (single isomer, unassigned) [Compound I-2688], in that order: no more than 100 nM and less than 1000 nM.
Taken in the same sequence, the figures for `Cc1cc2cnn(C)c2cc1-c1cc(NC(=O)c2cc(F)cc(C(F)(F)F)c2)c2c(c1)C(=O)NC2c1cc(F)ccc1Cl` (stereo not shown) [Compound I-933] were 100 to 500 nM and 5000 to 10000 nM.
As for `O=C1N[C@@H](c2cc(F)ccc2Cl)c2c(NC(=O)N3CCc4cc(F)ccc43)cc(-c3cnn(C(F)F)c3)cc21` (single isomer, unassigned) [Compound I-2357], the half-inhibitory concentration (IC50) in test [1] is no more than 100 nM; in test [2] it was less than 1000 nM.
For `N#CCc1cc(NC(=O)c2cc(F)cc(C(F)(F)F)c2)c2c(c1)C(=O)N[C@H]2c1cc(F)ccc1Cl` (racemic) [Compound I-1088], in that order: no more than 100 nM and less than 1000 nM.
Taken in the same sequence, the figures for `O=C(Nc1cc(C2CN(c3ccncn3)C2)cc2c1C(c1cc(F)ccc1Cl)NC2=O)c1cc(F)cc(C(F)(F)F)c1` (stereo not shown) [Compound I-1104] were no more than 100 nM and less than 1000 nM.
Take `Cc1ccccc1C1NC(=O)c2cc(Br)cc(NC(=O)c3csc4ccccc34)c21` (stereo not shown) [Compound I-29, N-[6-bromo-3-(2-methylphenyl)-1-oxo-2,3-dihydro-1H-isoindol-4-yl]-1-benzothiophene-3-carboxamide]: the IC50 was no more than 100 nM in test [1] and less than 1000 nM in test [2].
Regarding `O=C(Nc1cc(Nc2cn[nH]c2)cc2c1C(c1cc(F)ccc1Cl)NC2=O)c1cc(F)cc(C(F)(F)F)c1` (stereo not shown) [Compound I-994], the IC50 is no more than 100 nM in test [1] and less than 1000 nM in test [2].
Taken in the same sequence, the figures for `N#CCc1cc(NC(=O)N2CC(O)(C(F)(F)F)c3ccccc32)c2c(c1)C(=O)NC2c1cc(F)ccc1Cl` (mixture of isomers) [Compound I-2585] were no more than 100 nM and less than 1000 nM.
For `O=C1N[C@@H](c2cc(F)ccc2Cl)c2c(NC(=O)N3C[C@](O)(C(F)(F)F)c4cc(F)ccc43)ccc(-n3nccn3)c21` (single isomer, unassigned) [Compound I-2525], in that order: no more than 100 nM and less than 1000 nM.
For `O=C1N[C@@H](c2cc(F)ccc2Cl)c2c(NC(=O)N3C[C@@H](O)c4ccccc43)cc(Br)cc21` (single isomer, unassigned) [Compound I-1514], in that order: no more than 100 nM and 1000 to 5000 nM.
As to `O=C(Nc1cc(-c2ccnn2CC2CC2)cc2c1C(c1cc(F)ccc1Cl)NC2=O)c1cc(F)cc(C(F)(F)F)c1` (stereo not shown) [Compound I-1038], the IC50 in test [1] is no more than 100 nM; in test [2] it was less than 1000 nM.
For `NCc1cc(NC(=O)N2CC(O)(C(F)F)c3cc(F)ccc32)c2c(c1)C(=O)NC2c1cc(F)ccc1Cl` (stereo not shown) [Compound I-2597], in that order: no more than 100 nM and 10000 to 36000 nM.
With `CC(C)(O)c1ncc(-c2cc(NC(=O)c3cc(F)cc(C(F)(F)F)c3)c3c(c2)C(=O)NC3c2cc(F)ccc2Cl)cn1` (stereo not shown) [Compound I-941], the values for the half-inhibitory concentration (IC50) in test [1] and in test [2] were 100 to 500 nM and less than 1000 nM, respectively.
For `O=C(Nc1cc(-c2cscn2)cc2c1C(c1cc(F)ccc1Cl)NC2=O)c1cc(F)cc(C(F)(F)F)c1` (stereo not shown) [Compound I-920], in that order: no more than 100 nM and less than 1000 nM.
